The values below come from patent US8435976B2, “4-substituted pyridin-3-yl-carboxamide compounds and methods of use” (F. Hoffmann-La Roche, priority 2009, dated 2013).

The structures appear in SMILES notation.

For assay [1], the target named is BaF3 PIM2 cells (Homo sapiens, UniProt Q9P1W9). In words: BaF3 PIM2 cell proliferation (Cell Titer Glo). The format is cell-based. The note with it: incubated overnight; read-out: Prolif BaF3_PIM2 (IC50). The protocol: (§1) BaF3 parental line was obtained from the DSMZ repository. BaF3 lines transfected with PIM1 or PIM2 were generated. Mouse IL-3 was purchased from R&D Systems. G418 was purchased from Clontech. Media for BaF3 parental line contained RPMI, 10% FBS, 2 mM L-Glutamine, 2 ng/mL mIL-3. Media for BaF3 PIM1 & 2 lines contained RPMI, 10% FBS, 2 mM L-Glutamine, […]. Media for MM1.S line contained RPMI, 10% FBS, 2 mM L-Glutamine.
(§2) BaF3 parental cells, BaF3 PIM1 cells, BaF3 PIM2 cells, and MM1.S cells were seeded at 2 k/well, 5 k/well, 5 k/well, and 10 k/well respectively, in a 384-well plate, at 45 μL/well. Test compound was added at 5 μL/well. BaF3 cells (parental and transfected) were incubated overnight, while MM1.S cells were incubated for 72 hours at 37° C., 5% CO2. Cell Titer Glo Reagent (Promega) was added at 50 μL/well, the plates were incubated for 30 minutes, and their luminescence read on an HT Analyst. IC50/EC50 values for the test compound were calculated.
In general terms: ATP-based viability assays read luminescence as a measure of living cells.

Assay [2] addresses T1, PIM2 (Homo sapiens, UniProt Q9P1W9).
T1 construct: made in house
In words: Pim-2 kinase enzymatic assay (Caliper LC3000, FAM-Pimtide substrate). The format is biochemical. The note with it: 50 pM PIM2, 10 μM ATP, 90 minutes; read-out: PIM2 LC3K (Ki). The protocol: (§3) Reaction Buffer contained 10 mM HEPES, pH 7.2, 10 mM MgCl2, 0.01% Tween 20, 2 mM DTT.
(§4) PIM reactions were carried out in a final volume of 10 μL per well in a 384-well plate. […] The separation of product and substrate was optimized by choosing voltages and pressure using Caliper's Optimizer software (Hopkinton, Mass.). The separation conditions used a downstream voltage of −500V, an upstream voltage of −2150V, and a screening pressure of −1.2 psi. […] Substrate conversion was calculated from the electrophoregram using HTS Well Analyzer software (Caliper Life Sciences, Hopkinton, Mass.). Ki values for the test compound were calculated.

Assay [3] deals with T2, PIM1 (Homo sapiens, UniProt P11309).
T2 construct: made in house
In words: Pim-1 kinase enzymatic assay (Caliper LC3000, FAM-Pimtide substrate). The format is biochemical. The note with it: 20 pM PIM1, 10 μM ATP, 90 minutes; read-out: PIM1 LC3K (Ki). As for the experimental part:
as §3, §4

The target in assay [4] is BaF3 PIM1 cells (Homo sapiens, UniProt P11309). In words: BaF3 PIM1 cell proliferation (Cell Titer Glo). Format: cell-based. The note with it: incubated overnight; read-out: Prolif BaF3_PIM1 (IC50). As for the experimental part: as §1, §2
The subject of assay [5] is MM1.S cells. In words: MM1.S cell proliferation, 72 hours (Cell Titer Glo). The format is cell-based. The note with it: Homo sapiens, 72 hours, read-out: Prolif MM1S ATP (EC50). As for the experimental part: as §1, §2
Assay [6] deals with T3, PIM3 (Homo sapiens, UniProt Q86V86).
T3 construct: made in house
In words: Pim-3 kinase enzymatic assay (Caliper LC3000, FAM-Pimtide substrate). Format: biochemical. The note with it: 55 pM PIM3, 10 μM ATP, 90 minutes; read-out: PIM3 LC3K (Ki). The protocol: as §3, §4

As a reminder, the Ki is the dissociation constant of the complex between target and ligand, obtained from inhibition or displacement. As usually defined, the EC50 is the concentration giving half of the maximal effect.

BaF3 PIM1 cells, sequence (P11309 whole entry, change not shown): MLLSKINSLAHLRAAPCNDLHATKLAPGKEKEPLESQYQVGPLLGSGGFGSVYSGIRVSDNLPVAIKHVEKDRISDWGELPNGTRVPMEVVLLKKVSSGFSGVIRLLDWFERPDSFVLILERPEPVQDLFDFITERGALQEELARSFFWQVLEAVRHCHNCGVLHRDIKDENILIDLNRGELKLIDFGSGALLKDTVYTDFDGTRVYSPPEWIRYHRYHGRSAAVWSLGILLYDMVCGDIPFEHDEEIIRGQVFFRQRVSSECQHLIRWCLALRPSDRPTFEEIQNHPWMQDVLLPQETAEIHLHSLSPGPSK
T2 sequence (P11309 whole entry): as the sequence (P11309 whole entry, change not shown) above
T1 sequence (Q9P1W9 whole entry): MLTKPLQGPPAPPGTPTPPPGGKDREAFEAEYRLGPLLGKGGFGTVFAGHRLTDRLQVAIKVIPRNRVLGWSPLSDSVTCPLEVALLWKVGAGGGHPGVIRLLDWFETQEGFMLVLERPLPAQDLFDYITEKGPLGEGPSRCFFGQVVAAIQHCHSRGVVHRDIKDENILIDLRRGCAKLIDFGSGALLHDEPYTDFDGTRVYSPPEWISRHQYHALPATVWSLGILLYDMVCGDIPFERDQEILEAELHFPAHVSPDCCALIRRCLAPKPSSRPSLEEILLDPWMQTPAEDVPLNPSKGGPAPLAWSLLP
BaF3 PIM2 cells, sequence (Q9P1W9 whole entry, change not shown): as the sequence (Q9P1W9 whole entry) above

For the compound `Nc1sc(-c2ccccc2)nc1C(=O)Nc1cnccc1N1CCC[C@H](N)C1` [Example 7, (S)-5-amino-N-(4-(3-aminopiperidin-1-yl)pyridin-3-yl)-2-phenylthiazole-4-carboxamide], the values for the GI50 in assay [1] and in assay [4] were 3.1 µM and 73 nM, respectively. The Ki in assay [2] came to 0.203 nM; in assay [3], 0.091 nM; in assay [6], 0.0215 nM. The EC50 in assay [5] worked out at 141 nM.

Regarding `Nc1sc(-c2ccccn2)nc1C(=O)Nc1cnccc1N1CCC[C@H](N)C1` [Example 9, (S)-5-amino-N-(4-(3-aminopiperidin-1-yl)pyridin-3-yl)-2-(pyridin-2-yl)thiazole-4-carboxamide], the GI50 in assay [1] turned out to be 1.9 µM; in assay [4] it was 68.8 nM. The Ki was 0.16 nM in assay [2], 0.084 nM in assay [3] and 0.014 nM in assay [6]. For the same compound, in assay [5], the EC50 turned out to be 89.7 nM.

As to `Nc1sc(-c2c(Cl)cccc2Cl)nc1C(=O)Nc1cnccc1N1CCC[C@H](N)C1` [Example 58, (S)-5-amino-N-(4-(3-aminopiperidin-1-yl)pyridin-3-yl)-2-(2,6-dichlorophenyl)thiazole-4-carboxamide], the results for the GI50 in assay [1] and in assay [4] were 6.5 µM and 232 nM, respectively. Besides, the Ki in assay [2] was 1.85 nM; in assay [3] it was 0.89 nM; in assay [6], 0.554 nM. Further, in assay [5], the EC50 stood at 3100 nM.

Regarding `Nc1sc(-c2ccc(F)cc2F)nc1C(=O)Nc1cnccc1N1CCC[C@H](N)C1` [Example 42, (S)-5-amino-N-(4-(3-aminopiperidin-1-yl)pyridin-3-yl)-2-(2,4-difluorophenyl)thiazole-4-carboxamide], the GI50 in assay [1] came to 2.1 µM; in assay [4], 30.4 nM. Moreover, the results for the Ki in assay [2], in assay [3] and in assay [6] were 0.0939 nM, 0.036 nM and 0.022 nM, respectively. Also, in assay [5], the EC50 was found to be 121 nM.

With `C=C(C)c1nc(C(=O)Nc2cnccc2N2CCC[C@H](N)C2)c(N)s1` [Example 59, (S)-5-amino-N-(4-(3-aminopiperidin-1-yl)pyridin-3-yl)-2-(prop-1-en-2-yl)thiazole-4-carboxamide], the values for the GI50 in assay [1] and in assay [4] were over 20 µM and over 20000 nM, respectively. In addition, the inhibitory constant (Ki) turned out to be 355 nM in assay [2], 18.2 nM in assay [3] and 48 nM in assay [6]. In addition, the EC50 in assay [5] is over 20000 nM.

With `CC(C)Oc1ccc(F)c(-c2nc(C(=O)Nc3cnccc3N3CCC[C@H](N)C3)c(N)s2)c1F` [Example 29, (S)-5-amino-N-(4-(3-aminopiperidin-1-yl)pyridin-3-yl)-2-(3-isopropyloxy-2,6-difluorophenyl)thiazole-4-carboxamide], the results for the GI50 in assay [1] and in assay [4] were 4.3 µM and 48.9 nM, respectively. Moreover, the Ki came to 0.565 nM in assay [2], 0.058 nM in assay [3] and 0.07 nM in assay [6]. Further, the EC50 in assay [5] was determined as 1600 nM.

With `Nc1sc(-c2c(F)cccc2F)nc1C(=O)Nc1cnccc1N1CCC[C@H](O)C1` [Example 52, (S)-5-amino-2-(2,6-difluorophenyl)-N-(4-(3-hydroxypiperidin-1-yl)pyridin-3-yl)thiazole-4-carboxamide], the GI50 in assay [1] is over 20 µM; in assay [4], 2200 nM. Also, the Ki came to 0.495 nM in assay [2], 0.0269 nM in assay [3] and 0.061 nM in assay [6]. Further, in assay [5], the 50% effective concentration (EC50) stood at 1300 nM.

As for `Nc1sc(-c2c(F)cccc2F)nc1C(=O)Nc1cnccc1N1CCNCC1` [Example 50, 5-amino-2-(2,6-difluorophenyl)-N-(4-(piperazin-1-yl)pyridin-3-yl)thiazole-4-carboxamide], the GI50 in assay [1] was found to be 1.4 µM; in assay [4], 614 nM. Further, the Ki in assay [2] was 6.88 nM; in assay [3], 0.5 nM; in assay [6], 0.333 nM. Besides, in assay [5], the EC50 came out at 743 nM.

As to `Nc1sc(-c2c(F)cccc2F)nc1C(=O)Nc1cnccc1N1CCCCC1` [Example 24, 5-amino-2-(2,6-difluorophenyl)-N-(4-(piperidin-1-yl)pyridin-3-yl)thiazole-4-carboxamide], the GI50 in assay [1] is over 20 µM; in assay [4] it was over 14000 nM. Besides, the Ki was 16.3 nM in assay [2], 0.43 nM in assay [3] and 1.76 nM in assay [6]. The EC50 in assay [5] was 20000 nM.

Regarding `Nc1sc(-c2cccc(F)c2F)nc1C(=O)Nc1cnccc1N1CCC[C@H](N)C1` [Example 43, (S)-5-amino-N-(4-(3-aminopiperidin-1-yl)pyridin-3-yl)-2-(2,3-difluorophenyl)thiazole-4-carboxamide], the values for the GI50 in assay [1] and in assay [4] were 3.9 µM and 45.5 nM, respectively. Moreover, the Ki turned out to be 0.0185 nM in assay [2], 0.061 nM in assay [3] and 0.022 nM in assay [6]. Besides, in assay [5], the EC50 was 237 nM.

As for `CC(C)(C)c1nc(C(=O)Nc2cnccc2N2CCC[C@H](N)C2)c(N)s1` [Example 16, (S)-5-amino-N-(4-(3-aminopiperidin-1-yl)pyridin-3-yl)-2-tert-butylthiazole-4-carboxamide], the values for the GI50 in assay [1] and in assay [4] were over 20 µM and 926 nM, respectively. Moreover, the values for the Ki in assay [2], in assay [3] and in assay [6] were 3.83 nM, 1.56 nM and 2.26 nM, respectively. The EC50 in assay [5] fell in the range of 10000 to 20000 nM.

For the compound `Nc1sc(-c2cn3ccccc3n2)nc1C(=O)Nc1cnccc1N1CCC[C@H](N)C1` [Example 19, (S)-5-amino-N-(4-(3-aminopiperidin-1-yl)pyridin-3-yl)-2-(imidazo[1,2-a]pyridin-2-yl)thiazole-4-carboxamide], the GI50 in assay [1] was over 20 µM; in assay [4], 581 nM. The Ki worked out at 3.55 nM in assay [2] and 0.735 nM in assay [3]. In assay [5], the EC50 is 3200 nM.

On to `CN(C)C(=O)c1ccc(F)c(-c2nc(C(=O)Nc3cnccc3N3CCC[C@H](N)C3)c(N)s2)c1` [Example 18, (S)-5-amino-N-(4-(3-aminopiperidin-1-yl)pyridin-3-yl)-2-(5-(dimethylcarbamoyl)-2-fluorophenyl)thiazole-4-carboxamide], for which the results for the GI50 in assay [1] and in assay [4] were 12.3 µM and 257 nM, respectively. For the same compound, the Ki in assay [2] stood at 0.596 nM; in assay [3] it was 0.096 nM; in assay [6], 0.033 nM. Moreover, the EC50 in assay [5] came to 767 nM.

With `Cc1ccc(-c2nc(C(=O)Nc3cnccc3N3CCC[C@H](N)C3)c(N)s2)cc1` [Example 30, (S)-5-amino-N-(4-(3-aminopiperidin-1-yl)pyridin-3-yl)-2-(4-tolylthiazole)-4-carboxamide], the figures for the GI50 in assay [1] and in assay [4] were over 5 µM and 52.2 nM, respectively. Further, the Ki in assay [2] amounted to 0.429 nM; in assay [3] it was 0.076 nM; in assay [6], 0.033 nM. Moreover, in assay [5], the EC50 is 163 nM.

As to `Nc1sc(-c2ccc(Cl)cc2)nc1C(=O)Nc1cnccc1N1CCC[C@H](N)C1` [Example 12, (S)-5-amino-N-(4-(3-aminopiperidin-1-yl)pyridin-3-yl)-2-(4-chlorophenyl)thiazole-4-carboxamide], the GI50 in assay [1] turned out to be 4.2 µM; in assay [4], 2300 nM. For the same compound, the values for the Ki in assay [2], in assay [3] and in assay [6] were 1.06 nM, 0.172 nM and 0.072 nM, respectively. Also, the EC50 in assay [5] is 6800 nM.

Turning to `Nc1sc(-c2ccncc2)nc1C(=O)Nc1cnccc1N1CCC[C@H](N)C1` [Example 33, (S)-5-amino-N-(4-(3-aminopiperidin-1-yl)pyridin-3-yl)-2-(pyridin-4-yl)thiazole-4-carboxamide], the GI50 in assay [1] came out at 13.3 µM; in assay [4] it was 410 nM. In addition, the figures for the Ki in assay [2] and in assay [3] were 2.51 nM and 0.6 nM, respectively. Also, in assay [5], the EC50 worked out at 3500 nM.

`N[C@H]1CCCN(c2ccncc2NC(=O)c2csc(-c3ccccc3)n2)C1` [Example 48, (S)-N-(4-(3-aminopiperidin-1-yl)pyridin-3-yl)-2-phenylthiazole-4-carboxamide]: the Ki in assay [2] turned out to be 6.84 nM; in assay [3], 1.33 nM; in assay [6], 0.487 nM. Moreover, in assay [4], the GI50 is 1400 nM. For the same compound, the concentration for a half-maximal effect (EC50) in assay [5] was 8000 nM.

On to `Nc1sc(Cc2ccccc2)nc1C(=O)Nc1cnccc1N1CCC[C@H](NC(=O)C(F)(F)F)C1` [Example 49, (S)-5-amino-2-benzyl-N-(4-(3-(2,2,2-trifluoroacetamido)piperidin-1-yl)pyridin-3-yl)thiazole-4-carboxamide], for which the Ki in assay [2] amounted to 259 nM; in assay [3], 29.7 nM; in assay [6], 91.2 nM. In assay [4], the GI50 was 4000 nM. In assay [5], the EC50 was over 20000 nM.
